Patent US7485632B2, “Cephalosporins” (Nabriva Therapeutics Forschungs GmbH, priority 2002, dated 2009)
In brackets after ≈: the same amount, converted by molar mass.

How the values were obtained:
Type in all cases: cell-based
[1] = test system: Staphylococcus aureus (MSSA); test: Agar Dilution Test (NCCLS), MIC; settings: against Staphylococcus aureus (MSSA)
Streptococcus pneumoniae = test: Agar Dilution Test (NCCLS), MIC; settings: against Streptococcus pneumoniae
Klebsiella = test: Agar Dilution Test (NCCLS), MIC; settings: against Klebsiella
Pseudomonas aeruginosa = test: Antibacterial activity
Klebsiella pneumoniae = test: Agar Dilution Test (NCCLS), MIC; settings: against Klebsiella pneumoniae

Compound: CN(/N=C/C1=C(C(=O)O)N2C(=O)[C@@H](NC(=O)/C(=N\OCF)c3nsc(N)n3)C2SC1)C(=N)N[C@H]1CC[C@H](N)CC1 (stereo partly drawn) [Example 1, 3-{(E)[[1-trans-(4-Amino-cyclohexylamino)-iminomethyl]-methylhydrazono]methyl}-7-{[(5-amino-1,2,4-thiadiazol-3-yl)-(Z)-(fluoromethoxyimino)-acetyl]amino}-3-cephem-4-carboxylic acid]
- MIC [1]: 0.05 to 0.2 µg/mL (≈ 0.0837 to 0.335 µM)
- MIC (Streptococcus pneumoniae): ~0.0125 µg/mL (≈ 0.0209 µM)
- MIC (Klebsiella): 0.0125 to 0.8 µg/mL (≈ 0.0209 to 1.34 µM)
- activity against Pseudomonas aeruginosa (Pseudomonas aeruginosa): shows activtiy
- MIC (Klebsiella pneumoniae): ~0.0125 µg/mL (≈ 0.0209 µM)
